The experiment concerns the target human SGLT2 (Homo sapiens (Human), UniProt P31639). Kind of experiment: Inhibitory effects on human SGLT2 activities (14C-AMG uptake, sodium-dependent glucose transport assay). In kind it is cell-based. Conditions: CHO cells stably expressing hSGLT2, 37° C., 2 h, single determinations. In outline:
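CHO cells stably expressing hSGLT2 were preincubated 10 min at 37 °C in choline (Na+-free) buffer, then exposed 2 h at 37 °C to compound in Na+ uptake buffer with 8 μM 14C-AMG and 1 mM unlabeled AMG. Radioactivity was scintillation counted; IC50 came from nonlinear regression.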
human SGLT2, sequence (P31639 whole entry): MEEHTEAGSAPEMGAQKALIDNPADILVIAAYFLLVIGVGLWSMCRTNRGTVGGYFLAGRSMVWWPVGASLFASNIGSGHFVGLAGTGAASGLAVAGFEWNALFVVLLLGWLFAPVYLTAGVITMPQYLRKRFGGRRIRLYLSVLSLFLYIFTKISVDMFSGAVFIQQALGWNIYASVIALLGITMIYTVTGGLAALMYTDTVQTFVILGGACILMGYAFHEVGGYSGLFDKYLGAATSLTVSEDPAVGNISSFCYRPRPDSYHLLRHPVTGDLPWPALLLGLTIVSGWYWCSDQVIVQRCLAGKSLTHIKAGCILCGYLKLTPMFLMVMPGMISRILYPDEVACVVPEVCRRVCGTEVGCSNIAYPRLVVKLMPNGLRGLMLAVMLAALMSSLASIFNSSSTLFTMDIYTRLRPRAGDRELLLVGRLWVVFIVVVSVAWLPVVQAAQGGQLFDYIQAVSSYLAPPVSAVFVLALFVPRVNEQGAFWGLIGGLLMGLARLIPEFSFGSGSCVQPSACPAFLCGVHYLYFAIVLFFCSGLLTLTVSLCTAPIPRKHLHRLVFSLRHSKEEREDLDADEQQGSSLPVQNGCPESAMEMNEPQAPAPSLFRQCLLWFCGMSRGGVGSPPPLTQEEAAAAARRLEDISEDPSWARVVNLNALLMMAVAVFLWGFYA
As for `CNc1ccc(Cc2cc([C@@H]3O[C@H](CO)[C@@H](O)[C@H](O)[C@H]3O)c3c(c2Cl)CCC3)cc1` [Example E140, (2S,3R,4R,5S,6R)-2-(7-Chloro-6-(4-(methylamino)benzyl)-2,3-dihydro-1H-inden-4-yl)-6-(hydroxymethyl)tetrahydro-2H-pyran-3,4,5-triol 2,2,2-trifluoroacetate], inhibition was half-maximal at 1.34 nM (IC50).

As for `CNc1ccc(Cc2cc([C@@H]3O[C@H](CO)[C@@H](O)[C@H](O)[C@H]3O)c3c(c2Cl)OCC3)cc1` [Example E141, (2S,3R,4R,5S,6R)-2-(7-Chloro-6-(4-(methylamino)benzyl)-2,3-dihydrobenzofuran-4-yl)-6-(hydroxymethyl)tetrahydro-2H-pyran-3,4,5-triol 2,2,2-trifluoroacetate], the concentration for half-maximal inhibition (IC50) (commonly the midpoint of a concentration-inhibition curve) came to 2.82 nM.

`COc1ccc(Cc2cc([C@@H]3O[C@H](CO)[C@@H](O)[C@H](O)[C@H]3O)c3c(c2Cl)CC(C)S3)cc1` (stereo partly drawn) [Example E142, (2S,3R,4R,5S,6R)-2-(4-Chloro-5-(4-methoxybenzyl)-2-methyl-2,3-dihydrobenzo[b]thiophen-7-yl)-6-(hydroxymethyl)tetrahydro-2H-pyran-3,4,5-triol] registered an IC50 of 1.09 nM.

The molecule `CCOc1ccc(Cc2cc([C@@H]3O[C@H](CO)[C@@H](O)[C@H](O)[C@H]3O)c3c(c2Cl)CC(C)S3)cc1` (stereo partly drawn) [Example E143, (2S,3R,4R,5S,6R)-2-(4-Chloro-5-(4-ethoxybenzyl)-2-methyl-2,3-dihydrobenzo[b]thiophen-7-yl)-6-(hydroxymethyl)tetrahydro-2H-pyran-3,4,5-triol] returned an IC50 of 1.03 nM.

In the case of `CCc1ccc(Cc2cc([C@@H]3O[C@H](CO)[C@@H](O)[C@H](O)[C@H]3O)c3c(c2Cl)CC(C)S3)cc1` (stereo partly drawn) [Example E144, (2S,3R,4R,5S,6R)-2-(4-Chloro-5-(4-ethylbenzyl)-2-methyl-2,3-dihydrobenzo[b]thiophen-7-yl)-6-(hydroxymethyl)tetrahydro-2H-pyran-3,4,5-triol], the IC50 was 0.976 nM.

On to `CCOc1ccc(Cc2cc([C@@H]3O[C@H](SC)[C@@H](O)[C@H](O)[C@H]3O)c3c(c2Cl)CC(C)O3)cc1` (stereo partly drawn) [Example E145, (2S,3R,4R,5S,6R)-2-(4-Chloro-5-(4-ethoxybenzyl)-2-methyl-2,3-dihydrobenzofuran-7-yl)-6-(methylthio)tetrahydro-2H-pyran-3,4,5-triol], for which half-maximal inhibition (IC50) was put at 0.685 nM.

`CCOc1ccc(Cc2cc([C@@H]3O[C@H](S(C)(=O)=O)[C@@H](O)[C@H](O)[C@H]3O)c3c(c2Cl)CC(C)O3)cc1` (stereo partly drawn) [Example E146, (2S,3R,4R,5S,6R)-2-(4-Chloro-5-(4-ethoxybenzyl)-2-methyl-2,3-dihydrobenzofuran-7-yl)-6-(methylsulfonyl)tetrahydro-2H-pyran-3,4,5-triol]: the IC50 amounted to 3.45 nM.

As for `CCOc1ccc(Cc2cc([C@@H]3O[C@H]([S+](C)[O-])[C@@H](O)[C@H](O)[C@H]3O)c3c(c2Cl)CC(C)O3)cc1` (stereo partly drawn) [Example E147, (2S,3R,4R,5S,6R)-2-(4-Chloro-5-(4-ethoxybenzyl)-2-methyl-2,3-dihydrobenzofuran-7-yl)-6-((S)-methylsulfinyl)tetrahydro-2H-pyran-3,4,5-triol], the IC50 is 5.4 nM.

Regarding `CC1Cc2c(Cl)c(Cc3ccc(C(C)C)cc3)cc([C@@H]3O[C@H](CO)[C@@H](O)[C@H](O)[C@H]3O)c2O1` (stereo partly drawn) [Example E149, (2S,3R,4R,5S,6R)-2-(4-Chloro-5-(4-isopropylbenzyl)-2-methyl-2,3-dihydrobenzofuran-7-yl)-6-(hydroxymethyl)tetrahydro-2H-pyran-3,4,5-triol], the IC50 amounted to 1.8 nM.

`CC1Cc2c([C@@H]3O[C@H](CO)[C@@H](O)[C@H](O)[C@H]3O)cc(Cc3ccc(C(C)C)cc3)c(Cl)c2O1` (stereo partly drawn) [Example E150, (2S,3R,4R,5S,6R)-2-(7-Chloro-6-(4-isopropylbenzyl)-2-methyl-2,3-dihydrobenzofuran-4-yl)-6-(hydroxymethyl)tetrahydro-2H-pyran-3,4,5-triol]: the IC50 was found to be 1.44 nM.

The molecule `CCc1ccc(Cc2cc([C@@H]3O[C@H](CO)[C@@H](O)[C@H](O)[C@H]3O)c3c(c2Cl)OCC3C)cc1` (stereo partly drawn) [Example E153, (2S,3R,4R,5S,6R)-2-(7-Chloro-6-(4-ethylbenzyl)-3-methyl-2,3-dihydrobenzofuran-4-yl)-6-(hydroxymethyl)tetrahydro-2H-pyran-3,4,5-triol] displayed an IC50 of 0.721 nM.

With `CSc1ccc(Cc2cc([C@@H]3O[C@H](CO)[C@@H](O)[C@H](O)[C@H]3O)c3c(c2Cl)CCCO3)cc1` [Example E154, (2S,3R,4R,5S,6R)-2-(5-Chloro-6-(4-(methylthio)benzyl)chroman-8-yl)-6-(hydroxymethyl)tetrahydro-2H-pyran-3,4,5-triol], the IC50 was 1.01 nM.

Regarding `OC[C@H]1O[C@@H](c2cc(Cc3ccc(C4CC4)cc3)c(Cl)c3c2CCCO3)[C@H](O)[C@@H](O)[C@@H]1O` [Example E155, (2S,3R,4R,5S,6R)-2-(8-Chloro-7-(4-cyclopropylbenzyl)chroman-5-yl)-6-(hydroxymethyl)tetrahydro-2H-pyran-3,4,5-triol], the 50% inhibitory concentration (IC50) was determined as 0.881 nM.

As for `COc1ccc(Cc2cc([C@@H]3O[C@H](CO)[C@@H](O)[C@H](O)[C@H]3O)c3c(c2Cl)OCCC3)cc1` [Example E156, (2S,3R,4R,5S,6R)-2-(8-Chloro-7-(4-methoxybenzyl)chroman-5-yl)-6-(hydroxymethyl)tetrahydro-2H-pyran-3,4,5-triol], the IC50 worked out at 2.09 nM.

The molecule `CCOc1ccc(Cc2cc([C@@H]3O[C@H](CO)[C@@H](O)[C@H](O)[C@H]3O)c3c(c2Cl)OCCC3)cc1` [Example E157, (2S,3R,4R,5S,6R)-2-(8-Chloro-7-(4-ethoxybenzyl)chroman-5-yl)-6-(hydroxymethyl)tetrahydro-2H-pyran-3,4,5-triol] came in with an IC50 of 1.28 nM.

In turn, `OC[C@H]1O[C@@H](c2cc(Cc3ccc(C4CC4)cc3)c(Cl)c3c2OCO3)[C@H](O)[C@@H](O)[C@@H]1O` [Example E158, (2S,3R,4R,5S,6R)-2-(7-Chloro-6-(4-cyclopropylbenzyl)benzo[d][1,3]dioxol-4-yl)-6-(hydroxymethyl)tetrahydro-2H-pyran-3,4,5-triol] gave an IC50 of 0.366 nM.

`CC(C)c1ccc(Cc2cc([C@@H]3O[C@H](CO)[C@@H](O)[C@H](O)[C@H]3O)c3c(c2Cl)OCO3)cc1` [Example E159, (2S,3R,4R,5S,6R)-2-(7-Chloro-6-(4-isopropylbenzyl)benzo[d][1,3]dioxol-4-yl)-6-(hydroxymethyl)tetrahydro-2H-pyran-3,4,5-triol] came in with an IC50 of 0.872 nM.

The molecule `COc1ccc(Cc2cc([C@@H]3O[C@H](CO)[C@@H](O)[C@H](O)[C@H]3O)c3c(c2Cl)OCO3)cc1` [Example E161, (2S,3R,4R,5S,6R)-2-(7-Chloro-6-(4-methoxybenzyl)benzo[d][1,3]dioxol-4-yl)-6-(hydroxymethyl)tetrahydro-2H-pyran-3,4,5-triol] registered an IC50 of 1.15 nM.

The molecule `CCc1ccc(Cc2cc([C@@H]3O[C@H](CO)[C@@H](O)[C@H](O)[C@H]3O)c3c(c2Cl)OCO3)cc1` [Example E162, (2S,3R,4R,5S,6R)-2-(7-Chloro-6-(4-ethylbenzyl)benzo[d][1,3]dioxol-4-yl)-6-(hydroxymethyl)tetrahydro-2H-pyran-3,4,5-triol] yielded an IC50 of 0.404 nM.

Take `OC[C@H]1O[C@@H](c2cc(Cc3ccc(C4CC4)cc3)c(Cl)c3c2OCCO3)[C@H](O)[C@@H](O)[C@@H]1O` [Example E163, (2S,3R,4R,5S,6R)-2-(8-Chloro-7-(4-cyclopropylbenzyl)-2,3-dihydrobenzo[b][1,4]dioxin-5-yl)-6-(hydroxymethyl)tetrahydro-2H-pyran-3,4,5-triol]: the IC50 came to 0.651 nM.

`CCOc1ccc(Cc2cc([C@@H]3O[C@H](CO)[C@@H](O)[C@H](O)[C@H]3O)c3c(c2Cl)OCCCO3)cc1` [Example E164, (2S,3R,4R,5S,6R)-2-(9-Chloro-8-(4-ethoxybenzyl)-3,4-dihydro-2H-benzo[b][1,4]dioxepin-6-yl)-6-(hydroxymethyl)tetrahydro-2H-pyran-3,4,5-triol] came in with a 50% inhibitory concentration (IC50) of 1.28 nM.

As to `CCc1ccc(Cc2cc([C@@H]3O[C@H](CO)[C@@H](O)[C@H](O)[C@H]3O)c3c(c2Cl)OCCCO3)cc1` [Example E165, (2S,3R,4R,5S,6R)-2-(9-Chloro-8-(4-ethylbenzyl)-3,4-dihydro-2H-benzo[b][1,4]dioxepin-6-yl)-6-(hydroxymethyl)tetrahydro-2H-pyran-3,4,5-triol], the midpoint of inhibition, the IC50, lay at 1.08 nM.

For `OC[C@H]1O[C@@H](c2cc(Cc3ccccc3)c(Cl)c3c2CCO3)[C@H](O)[C@@H](O)[C@@H]1O` [Example E166, (2S,3R,4R,5S,6R)-2-(6-Benzyl-7-chloro-2,3-dihydrobenzofuran-4-yl)-6-(hydroxymethyl)tetrahydro-2H-pyran-3,4,5-triol], the IC50 came out at 4.22 nM.

In turn, `CC(=O)c1ccc(Cc2cc([C@@H]3O[C@H](CO)[C@@H](O)[C@H](O)[C@H]3O)c3c(c2Cl)OCC3)cc1` [Example E168, 1-(4-((7-Chloro-4-((2S,3R,4R,5S,6R)-3,4,5-trihydroxy-6-(hydroxymethyl)tetrahydro-2H-pyran-2-yl)-2,3-dihydrobenzofuran-6-yl)methyl)phenyl)ethanone] had an IC50 of 0.96 nM.

Molecule `CC(O)c1ccc(Cc2cc([C@@H]3O[C@H](CO)[C@@H](O)[C@H](O)[C@H]3O)c3c(c2Cl)OCC3)cc1` (stereo partly drawn) [Example E169, (2S,3R,4R,5S,6R)-2-(7-Chloro-6-(4-(1-hydroxyethyl)benzyl)-2,3-dihydrobenzofuran-4-yl)-6-(hydroxymethyl)tetrahydro-2H-pyran-3,4,5-triol] returned an IC50 of 2.12 nM.

Regarding `CC(F)c1ccc(Cc2cc([C@@H]3O[C@H](CO)[C@@H](O)[C@H](O)[C@H]3O)c3c(c2Cl)OCC3)cc1` (stereo partly drawn) [Example E170, (2S,3R,4R,5S,6R)-2-(7-Chloro-6-(4-(1-fluoroethyl)benzyl)-2,3-dihydrobenzofuran-4-yl)-6-(hydroxymethyl)tetrahydro-2H-pyran-3,4,5-triol], the IC50 is 1.46 nM.
